Measured values published in patent US10745715B2, “Method and means for purifying retroviral vectors” (UCL BUSINESS PLC, priority 2014, dated 2020).
No end group written: not given here.

Tests used:
[1] = system: NT-293T cells; format: cell-based, human
[2] = target: T1, Streptavidin (Streptomyces avidinii, UniProt P22629); experiment: Streptavidin-APC staining of HEK 293T cells transfected with tag constructs, flow cytometry; format: cell-based; conditions: 48 hrs post-transfection
Method: A. Schematic diagram of the amino acid sequences of the six Streptavidin-binding tags on a CD8 stalk. These constructs co-express the green fluorescent protein (eGFP) via an internal ribosome entry sequence (IRES) downstream of the first open reading frames. B. The constructs were transfected into HEK 293T cells and stained with Streptavidin-APC 48 hours post-transfection and analysed by flow-cytometry. Binding of streptavidin (y-axis) is plotted against eGFP signal.
FIG. 3: Transfection of 293T cells with StreptagII, Flankedccstreptag and ccstretag epitopes in three different formats shown in FIG. 2. 293T cells were also transfected with an irrelevant protein (HA1-TCR beta) co-expressed with eGFP as a negative control. […] Tags were expressed on either a CD8 stalk, a GPI anchor (×1) with one open reading frame or with a GPI anchor (×2) with two copies of the open reading frame. 293T cells transfected with the tagging proteins were stained with Streptavidin APC. The cells were all analysed by flow-cytometry and Streptavidin APC binding (y-axis) is plotted against eGFP signal (x-axis).
An expression construct coding for a signal peptide attached to the amino terminal of theses tags was generated. In addition, the carboxy terminal of these peptide tags was attached to the CD8 stalk, CD8 transmembrane domain and a short part of the CD8 endodomain sufficient to anchor the protein to the membrane. To test their binding to streptavidin, HEK 293T cells were transfected with each construct individually and 48 hrs post-transfection cells were harvested and stained with Streptavidin conjugated to the fluorophore Allophycocyanin (APC) (FIG. 1B).
The optimal format to express these tags on the cell surface for streptavidin binding was then investigated. Additional plasmids were constructed where these tags are expressed on a GPI anchor with one copy of the tags' open reading frames and GPI anchor with two copies of the open reading frames separated by a CD8-based linker (the annotated amino acid sequences of these constructs are depicted in FIG. 2). The binding of these tags was compared with that of the original constructs where the epitopes were placed on a CD8 stalk.
To test their binding to Streptavidin, HEK 293T cells were transiently transfected with the constructs and stained 48 hrs post-transfection with Streptavidin-APC (FIG. 3).

[3] = system: K562 cells; experiment: Sorting of K562 cells expressing flankedccstreptag, RQR8, GST or H6 tags with their respective beads; format: cell-based; conditions: for eGFP positive cells in the flow-through fraction / eGFP positive cells in the sorted fraction: K562, respective beads, 12 days post sorting; for eGFP positive cells, pre-sorted population: retrovirally transduced K562 before sorting
Method: K562 cells were retrovirally transduced with the four constructs individually. Subsequently cell populations were sorted with their respective beads as per manufacturer protocol. Protein-A Dynabeads were previously incubated with clinical grade human-rituximab over-night at 4 C and washed 5× with PBS to remove any unbound rituximab before adding it to the cells. Sorted fractions were collected as well as the flow through for all sorting. Fractions were assessed for positive cells based on eGFP expression by flow cytometery with a blank channel to account for auto fluorescence from dead cells.
The efficiencies of the different tags (GST, RQR8 and His-tag) at purifying lentiviral particles from cellular media, was tested using the approach previously described for flankcedccstreptag (see Example 2), i.e. by sorting K562 cells expressing these tags on their surface. K562 cells were retrovirally transduced with flankedccstreptag, GST, RQR8 and H6 epitopes separately (FIG. 8, Pre-sorted column). Transduced cells represented a minority of the total population based on eGFP expression; therefore cells were not mixed with NT-K562 cells. Populations expressing flankedccstreptag at 10.5%, RQR8 at 9.75%, GST at 22.7% and H6 […] were thereafter sorted with Streptavidin Dynabeads, human rituximab previously incubated with protein-A bead, Glutathione magnetic beads and His-tag Dynabeads respectively.
Collected fractions were assessed for positive cells 12 days-post sorting. […] Moreover, K562 cells expressing GST epitope were successfully purified from pre-sorting population with 91% eGFP positive cells present in the sorted fraction. […] Conversely, K562 expressing H6 sorting was less successful as only 26.1% of cells in the sorted fraction were eGFP positive while 71.1% of cells were eGFP negative. Additionally, 59.2% eGFP positive cells were in the flow-through. The GST and RQR8 tags therefore show the best activity with regard to purifying viral particles from cellular supernatant in the same manner as flankcedccstreptag epitope.

[4] = target: T1, Streptavidin; conditions: biotin mimicking peptide binding streptavidin; read-out: affinity; cited from earlier work
[5] = system: K562 cells; experiment: Sorting of K562 cells expressing Flankedccstreptag formats with streptavidin beads; format: cell-based
Method: Transduced K562 were close to 100% positive for the transgenes after transduction. Positive cells were mixed with non-transduced (NT) K562 pre-sorting. The mixture was incubated with both streptavidin dynabeads (Life technologies, Cat. No. 65601) and streptavidin-microbeads (Miltenyi, Cat. No. 130-048-101) as per manufacturer protocol. The sorted cellular fraction was collected as well as flow-through fraction for both protocols. Sorting was assessed by streptavidin-APC staining and for eGFP positive cell populations 9 days post sorting by flow cytometry.
To establish that the two versions of Flankedccstreptag are able to purify lentivirus from cellular supernatant, an initial experiment was carried out involving sorting of K562 cells expressing these tags on their surface using streptavidin beads. We reasoned that if the tags could attach to a streptavidin matrix while expressed on cells with sufficient stability to allow sorting of expressing cells, they should be suitable for lentiviral capture too.
K562 cells were retrovirally transduced to express the two tags and transduction efficiencies were determined by eGFP expression using flow cytometry (FIG. 4 Transduced K562 plot). Subsequently, transduced cells were mixed with non-transduced K562 to assess the efficiency of sorting using two streptavidin-beads sourced from Life technologies (Dynabeads) and Miltenyi (Microbeads). […]

T1 sequence (P22629 25-183): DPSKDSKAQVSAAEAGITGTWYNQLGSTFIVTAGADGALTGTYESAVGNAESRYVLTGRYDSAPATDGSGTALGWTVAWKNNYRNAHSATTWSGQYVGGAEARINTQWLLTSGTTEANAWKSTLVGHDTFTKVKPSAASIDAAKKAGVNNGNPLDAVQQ

Flankedccstreptag: biotin mimic tag AECHPQGPPCIEGRK (SEQ ID NO: 2) expressed at the cell surface as tagging protein (Biotin mimicking peptide, flankedccstreptag)
transduction efficiency, neat supernatant [1]: high transduction efficiencies
binding to Streptavidin-APC ([2]; tag on CD8 stalk): successfully bound
binding to Streptavidin-APC ([2]; tag on GPI anchor, two open reading frames (x2)): higher binding efficiency than StreptagII and ccstreptag
eGFP positive cells in the flow-through fraction [3]: absence of eGFP positive cells
eGFP positive cells in the sorted fraction [3]: 93.6%
eGFP positive cells, pre-sorted population [3]: 10.5%

RQR8: tag with rituximab-binding and Qbend10 epitopes on CD8 stalk, SEQ ID NO: 21
transduction efficiency, neat supernatant [1]: high transduction efficiencies
eGFP positive cells in the flow-through fraction [3]: absence of eGFP positive cells
eGFP positive cells in the sorted fraction [3]: 89.4%
eGFP positive cells, pre-sorted population [3]: 9.75%

biotin mimicking peptide DVEAWLDERVPLVET (SEQ ID NO: 35) (Biotin mimicking peptide, long nanotag)
Kd [4]: 3.6 nM
binding to Streptavidin-APC ([2]; tag on CD8 stalk): did not exhibit any binding

biotin mimicking peptide DVEAWLGAR (SEQ ID NO: 36) (Biotin mimicking peptide, short nanotag)
Kd [4]: 17 nM
binding to Streptavidin-APC ([2]; tag on CD8 stalk): did not exhibit any binding

biotin mimicking peptide WSHPQFEK (SEQ ID NO: 1) [streptagll]
Kd [4]: 72000 nM
binding to Streptavidin-APC ([2]; tag on CD8 stalk): successfully bound

disulphide constrained biotin mimicking peptide CHPQGPPC (SEQ ID NO: 3) [ccstreptag]
Kd [4]: 230 nM
binding to Streptavidin-APC ([2]; tag on CD8 stalk): successfully bound

flankedccstreptag-d8-x2-GPI: two Flankedccstreptag copies separated by CD8-based linker (SEQ ID NO: 5) on a GPI anchor (ECHPQGPPCIEGRKSSGGGGSPAPRPPTPAPTIASECHPQGPPCIEGRKS; cysteine pairing not given here; also: on a GPI anchor, small tags and cut ends left off)
sorting of tag-expressing K562 cells from mixture with NT K562 ([5]; streptavidin microbeads (Miltenyi)): successful
sorting of tag-expressing K562 cells from mixture with NT K562 ([5]; streptavidin-dynabeads (Life technologies), eGFP): successfully sorted
